Assays:
[1] = biological target: T1, E. coli β-glucuronidase (eβG) (Escherichia coli, UniProt P05804); test: In vitro βG-activity assay (pNPG hydrolysis), eβG; type: biochemical; settings: for eβG activity (%) with 50 μM compound: pH 7.3, percent of activity vs untreated control
T1 construct: histidine tag (N); made in house; host or cells: E. coli BL21 (DE3)
Method: (§1) Plasmid pRESTB containing βG gene and a histidine tag at the N-terminus was constructed as described. Recombinant βG (human and E. coli) was produced by isopropyl β-D-thiogalactopyranoside (IPTG) induction of BL21 (DE3) bacteria. βG was purified from bacterial supernatants by affinity chromatography on nickels Sepharose 6 Fast Flow (GE Healthcare). The column was washed by phosphate-buffered saline (PBS), with 50 mM imidazole, and βG was eluted by PBS with 250 mM imidazole. The purified βG was desalted on a Sephadex G-25 column equilibrated with PBS and stored at −80°C.
The candidate compounds were purchased from SPECS (The Netherlands). Each candidate was provided as a solid power and dissolved in 100% DMSO (Sigma-Aldrich) to 10 mM as stock. Candidates were screened for their inhibition specificity of eβG versus hβG, which were conducted at pH 7.3 or pH 5.4, in triplicate, respectively. 40 μL purified βG was treated with 10 μL compound solution at 37°C for 30 min and sequentially incubated with 50 μL of pNPG (Sigma-Aldrich) at 37°C for 30 min. Reactions were quenched with 5 μL of 2 N sodium hydroxide (Sigma-Aldrich). Each reaction consisted of 3.75 ng purified βG, 50 μM compound, and 5 mM pNPG in PBS containing 10% DMSO and 0.05% BSA (Sigma-Aldrich). βG-activities were measured by color development of pNP detected on a microplate reader at OD 405 nm. […] For IC50 determination, compounds at various concentrations (100 μM to 0.001 μM) were added.
Supplementary file 740815.f1.pdf: Fifty-nine candidate compounds were acquired from the initial virtually screening which was designed to target the bacterial loop of eβG and its active site. The docking energy scores of 59 candidate compounds measured by the DOCK program are -43 to -55 kcal/mol. (Table S1) The candidate compounds were purchased from SPECS (Zoetermeer, The Netherlands). Each candidate was rovided as a solid power and dissolved in 100% DMSO (Sigma-Aldrich, MO, USA) to 10 mM as stock. Candidates were screening for their inhibition specificity of eβG verse hβG, which were conducted at pH 7.3 or pH 5.4 in triplicate, respectively. 40 µL purified βG was treated with 10 µL compound solution at 37 °C for 30 min, and sequentially incubated with 50 µL of pNPG (Sigma-Aldrich) at 37 °C for 30 min. Reactions were quenched with 5 µL of 2 N sodium hydroxide (Sigma-Aldrich). Each reaction consisted of 3.75 ng purified βG, 50 µM compound, and 5 mM pNPG in PBS containing 10% DMSO and 0.05% BSA (Sigma-Aldrich). βG-activities were measured by color development of pNP detected on a microplate reader at OD 405 nm. […] Especially, the inhibiting ability against eβG activity was >95% in 7 candidates of eβG specific inhibitors (Table S1).
(§2) Fifty-nine candidate compounds were acquired from the initial virtually screening which was designed to target the bacterial loop of eβG and its active site. The docking energy scores of 59 candidate compounds measured by the DOCK program are -43 to -55 kcal/mol. (Table S1) The candidate compounds were purchased from SPECS (Zoetermeer, The Netherlands). Each candidate was provided as a solid power and dissolved in 100% DMSO (Sigma-Aldrich, MO, USA) to 10 mM as stock. Candidates were screening for their inhibition specificity of eβG verse hβG, which were conducted at pH 7.3 or pH 5.4 in triplicate, respectively. 40 μL purified βG was treated with 10 μL compound solution at 37 °C for 30 min, and sequentially incubated with 50 μL of pNPG (Sigma-Aldrich) at 37 °C for 30 min. Reactions were quenched with 5 μL of 2 N sodium hydroxide (Sigma-Aldrich). Each reaction consisted of 3.75 ng purified βG, 50 μM compound, and 5 mM pNPG in PBS containing 10% DMSO and 0.05% BSA (Sigma-Aldrich). βG-activities were measured by color development of pNP detected on a microplate reader at OD 405 nm. […]
percent of βG activity compared with the untreated control.
Especially, the inhibiting ability against eβG activity was >95% in 7 candidates of eβG specific inhibitors (Table S1).
Table S1. […]

human βG (hβG) = biological target: T2, human βG (hβG) (Homo sapiens, UniProt P08236); test: In vitro βG-activity assay (pNPG hydrolysis), hβG; type: biochemical; settings: pH 5.4, percent of activity vs untreated control
T2 construct: histidine tag (N); made in house; host or cells: E. coli BL21 (DE3)
T2 sequence (P08236 23-651): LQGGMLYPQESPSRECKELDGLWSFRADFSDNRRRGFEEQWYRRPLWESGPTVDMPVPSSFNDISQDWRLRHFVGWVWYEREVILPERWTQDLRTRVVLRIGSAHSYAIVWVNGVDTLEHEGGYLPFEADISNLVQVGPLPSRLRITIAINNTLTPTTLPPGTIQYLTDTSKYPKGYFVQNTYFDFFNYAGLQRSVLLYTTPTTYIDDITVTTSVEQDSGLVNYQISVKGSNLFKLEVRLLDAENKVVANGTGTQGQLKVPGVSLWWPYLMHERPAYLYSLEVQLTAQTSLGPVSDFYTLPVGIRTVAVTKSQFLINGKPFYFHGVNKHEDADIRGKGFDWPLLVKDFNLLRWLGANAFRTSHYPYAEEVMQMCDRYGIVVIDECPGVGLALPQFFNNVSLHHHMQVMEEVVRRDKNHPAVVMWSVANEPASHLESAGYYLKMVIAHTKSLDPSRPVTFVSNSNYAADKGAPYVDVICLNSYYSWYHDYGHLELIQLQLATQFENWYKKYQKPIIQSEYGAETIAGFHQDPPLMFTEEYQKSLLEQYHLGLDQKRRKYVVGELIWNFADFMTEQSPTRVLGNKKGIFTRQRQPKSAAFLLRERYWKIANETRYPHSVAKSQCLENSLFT
Method: as §1
The candidate compounds were purchased from SPECS (The Netherlands). Each candidate was provided as a solid power and dissolved in 100% DMSO (Sigma-Aldrich) to 10 mM as stock. Candidates were screened for their inhibition specificity of eβG versus hβG, which were conducted at pH 7.3 or pH 5.4, in triplicate, respectively. 40 μL purified βG was treated with 10 μL compound solution at 37°C for 30 min and sequentially incubated with 50 μL of pNPG (Sigma-Aldrich) at 37°C for 30 min. Reactions were quenched with 5 μL of 2 N sodium hydroxide (Sigma-Aldrich). Each reaction consisted of 3.75 ng purified βG, 50 μM compound, and 5 mM pNPG in PBS containing 10% DMSO and 0.05% BSA (Sigma-Aldrich). βG-activities were measured by color development of pNP detected on a microplate reader at OD 405 nm.
as §2, with “(Table” for “Fifty-nine candidate compounds were acquired from the initial virtually screening which was designed to target the bacterial loop of eβG and its active site. The docking energy scores of 59 candidate compounds measured by the DOCK program are -43 to -55 kcal/mol. (Table”, “rovided” for “provided”, “µL” for “μL”, “µM” for “μM”
candidate compounds were purchased from SPECS (Zoetermeer, The Netherlands). Each candidate was provided as a solid power and dissolved in 100% DMSO (Sigma-Aldrich, MO, USA) to 10 mM as stock. Candidates were screening for their inhibition specificity of eβG verse hβG, which were conducted at pH 7.3 or pH 5.4 in triplicate, respectively. 40 μL purified βG was treated with 10 μL compound solution at 37 °C for 30 min, and sequentially incubated with 50 μL of pNPG (Sigma-Aldrich) at 37 °C for 30 min. Reactions were quenched with 5 μL of 2 N sodium hydroxide (Sigma-Aldrich). Each reaction consisted of 3.75 ng purified βG, 50 μM compound, and 5 mM pNPG in PBS containing 10% DMSO and 0.05% BSA (Sigma-Aldrich). βG-activities were measured by color development of pNP detected on a microplate reader at OD 405 nm.

T1 sequence (P05804 whole entry): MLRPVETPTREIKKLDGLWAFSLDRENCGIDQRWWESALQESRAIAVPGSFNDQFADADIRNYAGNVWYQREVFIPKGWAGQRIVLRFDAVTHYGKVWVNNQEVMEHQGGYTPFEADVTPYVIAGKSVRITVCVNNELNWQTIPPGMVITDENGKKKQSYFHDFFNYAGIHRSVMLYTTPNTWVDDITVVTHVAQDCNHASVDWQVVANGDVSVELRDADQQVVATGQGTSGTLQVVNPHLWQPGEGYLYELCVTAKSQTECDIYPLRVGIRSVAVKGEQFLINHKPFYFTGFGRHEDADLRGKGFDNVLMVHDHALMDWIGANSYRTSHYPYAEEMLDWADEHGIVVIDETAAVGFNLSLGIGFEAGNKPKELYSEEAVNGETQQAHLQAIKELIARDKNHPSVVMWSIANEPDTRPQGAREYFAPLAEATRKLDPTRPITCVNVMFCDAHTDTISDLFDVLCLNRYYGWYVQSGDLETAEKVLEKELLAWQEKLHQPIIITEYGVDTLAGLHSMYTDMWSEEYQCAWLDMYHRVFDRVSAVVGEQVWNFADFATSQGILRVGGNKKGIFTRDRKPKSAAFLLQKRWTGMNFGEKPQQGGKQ

Row | SMILES | eβG activity (%) with 50 μM compound [1] | hβG activity (%) with 50 μM compound (human βG (hβG)) | inhibition at 10 µM ([1]; read-out: inhibition of eβG activity) | IC50 ([1]; recombinant eβG, pNPG substrate, pH 7.3)
1 | NC(N)=Nc1nc2ccc(Br)cc2c(=O)[nH]1 [Compound 2020] | 13.68% | 84.13% | – | –
2 | CS(=O)(=O)CCC(C(=O)O)N1C(=O)c2ccccc2C1=O (stereo not drawn) [Compound 9063] | 32.48% | 105.45% | – | –
3 | CC1=C(C)CC(C(=O)Nc2c(C)cccc2C)C(C(=O)O)C1 (stereo not drawn) [Compound 5259] | 34.05% | 106.20% | – | –
4 | CN(C)CCCNS(=O)(=O)c1ccc2c3c(cccc13)C(=O)N2 [Compound 8010] | 23.58% | 98.84% | – | –
5 | Cc1cc(NS(=O)(=O)c2ccc(NC(=O)C(C)Oc3ccc(Cl)cc3Cl)cc2)no1 (stereo not drawn) [Compound 8889] | 11.40% | 102.15% | – | –
6 | COc1ccc(S(=O)(=O)NCCN2CCOCC2)c2ccccc12 [Compound 7670] | 43.16% | 93.31% | – | –
7 | NC1=C2N=C(c3ccc([N+](=O)[O-])cc3)NN2NN1 [Compound 8013a] | 60.40% | 100.33% | – | –
8 | O=C(O)C1CCCCC1C(=O)Nc1ccc(Oc2ccc(Cl)cc2)cc1 (stereo not drawn) [Compound 1013] | 34.76% | 126.45% | – | –
9 | O=C(Nc1ccc(S(=O)(=O)N2CCCC2)cc1)c1[nH]ncc1[N+](=O)[O-] [Compound 6843] | 27.49% | 108.76% | – | –
10 | O=C(NC(NCc1ccco1)C(Cl)(Cl)Cl)c1ccc(Br)cc1 (stereo not drawn) [Compound 6019] | 33.83% | 104.96% | – | –
11 | O=[N+]([O-])C12CNCC([N+](=O)[O-])(CNC1)C2 [Compound 8013b] | 32.91% | 93.72% | – | –
12 | Cc1cccc2n(C)c(/C=N/N=C(N)N)c[n+]12 [Compound 0956] | 29.70% | 103.31% | – | –
13 | CCOC(=O)N1CCC2(CC1)OS(=O)(=O)C=C2N [Compound 0523] | 31.77% | 109.26% | – | –
14 | O=C1C=C(Nc2cccc3cc(S(=O)(=O)O)ccc23)c2ccccc2C1=O [Compound 4277] | 44.37% | 115.21% | – | –
15 | O=C(O)C1CC=CCC1C(=O)Nc1ccc(Br)c2cccnc12 (stereo not drawn) [Compound 5244] | 26.21% | 44.38% | – | –
16 | O=S(=O)(c1ccc(Br)cc1)N1CCNCC1 [Compound 8329] | 33.19% | 97.77% | – | –
17 | Cc1ccc(Cl)cc1NC1=NS(=O)(=O)c2ccccc21 [Compound 1448] | 11.11% | 109.67% | – | –
18 | CCN(CC)S(=O)(=O)c1cccc(N=Nc2c(O)[nH]c(=O)[nH]c2=O)c1 [Compound 9274] | 32.34% | 106.69% | – | –
19 | Cc1ccccc1NC(=O)c1cccc(NC(=O)c2cc(Cl)c(Cl)cc2C(=O)O)c1 [Compound 1306] | 29.20% | 105.45% | – | –
20 | CCN1CCN(S(=O)(=O)c2cccc(Cl)c2)CC1 [Compound 9572] | 42.66% | 106.78% | – | –
21 | Cc1cc2nc(C[n+]3cccc(C(N)=O)c3)[nH]c2cc1C [Compound 0136] | 19.16% | 108.76% | – | –
22 | O=C1SCCC1NS(=O)(=O)c1cc(Cl)ccc1Cl (stereo not drawn) [Compound 3927] | 18.73% | 106.86% | – | –
23 | Cc1ccc2c(c1)C1CN(C)CCC1N2C(=O)c1cc(Cl)ccc1[N+](=O)[O-] (stereo not drawn) [Compound 3959] | 42.88% | 105.45% | – | –
24 | Cc1ccc(S(=O)(=O)N=C2C=C(Sc3nnc[nH]3)C(=O)c3ccccc32)cc1 [Compound 4041, 4-methyl-N-(4-oxo-3-(1H-1,2,4-triazol-5ylsulfanyl)-1(4H)-naphthalenylidene)benzenesulfonamide] | – | – | > 80% | 2.8 µM
